Experimental data as given in paper PMC11061149, “Protein mimetic 2D FAST rescues alpha synuclein aggregation mediated early and post disease Parkinson’s phenotypes” (Nature Communications, 2024).
Values joined by “and” are separate entries in the source; they are usually repeats but may differ in a detail not shown here. Identical values can stand only once.

Tests used:
[1] = target: T1, α-Synuclein (αS) aggregation (Homo sapiens, UniProt P37840); experiment: Thioflavin T (ThT) dye-based αS aggregation assay (de novo); type: biochemical; conditions: for ThT intensity relative to Synuclein alone (=1), Average / ThT intensity relative to Synuclein alone (=1), Trial 1-3: 100 µM αS, four days, equimolar; for ThT intensity relative to Synuclein alone (=1), Trial 1-3 / Relative ThT intensity of αS aggregation: individual trials; for remaining activity at 100 µM: 96 h, pH 6.5, 100 μM αS, 1×PBS pH 6.5, four days, ligand:αS equimolar, read-out: ThT signal/intensity relative to αS alone (100%); for Relative ThT intensity of αS aggregation, Average / Relative ThT intensity of αS aggregation: Synuclein alone about 1; for ThT intensity (raw), individual trials: αS aggregation after four days, NS132 derivatives equimolar (Fig. 2r)
T1 construct: made in house; host or cells: E. coli BL21(DE3)
Method: We used a 2D FAST approach in OPs to identify potent antagonists of the aggregation of αS. In this approach, we start with a library of monopyridyls with different functional groups. The library of monopyridyls was synthesized using 2-chloro-6-methyl-3-nitropyridine as a common precursor, which was treated with primary alcohols with diverse side chain functionalities via a one-pot reaction (Fig. 1B, a and see Supplementary information for synthetic details). […] We selected the side chains containing hydrophobic, polar, positively charged, and negatively charged functional groups, which mimic the side chains of the amino acids (Fig. 1C). […] The monopyridyl library was screened against the aggregation of 100 μM αS at an equimolar ratio using Thioflavin T (ThT) dye-based aggregation assay (Fig. 1B, b). […] The chloro-dipyridyl was reacted with a library of primary amines/thiols to synthesize a library of dipyridyls (Fig. 1B, e) using a one-pot reaction. […] However, a few dipyridyls required column chromatography to separate them from the starting material side chains because of their very high boiling point (7 out of 21 dipyridyls required column, Supplementary Fig. 1). […]
Aggregation Kinetics were measured according to a previously described protocol. […] The solutions were placed in a ThermoMixer (Eppendorf, Hamberg, Germany) at 37 °C with constant shaking at 1300 rpm (rpm). At different time points, 5 μL aliquots of each αS solution were added to 95 μL PBS containing 50 μM Thioflavin T (ThT) dye in a Costar black 96 well plate (Corning Inc., Kennebunk, ME). ThT fluorescence intensity was measured (λex = 450 nm and λem = 490 nm) on an Infinite M200PRO plate reader (Tecan, Männedorf, Switzerland), and plotted against time to give a sigmoidal curve typical of amyloid aggregation. For the single point ThT aggregation, 100 μM αS, in the absence and presence of ligands, was aggregated under the described conditions and the ThT fluorescence was reported at 96 h. The reported ThT intensity values are the average of each experiment conducted in triplicate, with the error bars representing the standard deviations or standard error of the mean (s.e.m.) as described in the main manuscript.

αS aggregation = target: T2, αS aggregation (Homo sapiens, UniProt P37840); experiment: SDS-PAGE gel shift assay of soluble and insoluble αS fractions; type: biochemical; conditions: for αS band intensity, Total / Total (αS, SDS-PAGE gel shift), Trial 1-3: individual trials; for Total (αS, SDS-PAGE gel shift), Average: average of 3 trials; for Total (αS, SDS-PAGE gel shift), Average / Total (αS, SDS-PAGE gel shift), Trial 1-3: sheet S9D
T2 construct: made in house; host or cells: E. coli BL21(DE3)
Source text: The inhibition of αS aggregation by NS41 was also confirmed by TEM images, which show an abundance (Supplementary Fig. 3a) and low amount (Supplementary Fig. 3b) of αS fibers in the absence and presence of NS41, respectively. We used SDS-PAGE (Sodium dodecyl sulfate polyacrylamide gel electrophoresis) as a complementary assay to validate ThT results and to further characterize the antagonist activity of the monopyridyls against αS aggregation. We used a total of four monopyridyls with varying antagonist activity against αS aggregation for the SDS-PAGE assay. The solutions of αS (±monopyridyls) were centrifuged and the soluble and insoluble fractions were subjected to SDS-PAGE analysis as reported earlier (Fig. 2d, Supplementary Fig. 4a, see details in methods section). The band intensities of the gels in SDS-PAGE assay were quantified using ImageJ software. In the absence of ligands, ~12% of αS was found in the soluble fraction and the rest was found in the insoluble fraction (Fig. 2d, Supplementary Fig. 4a, b). In the presence of NS41 at molar ratios of 1:1 and 2:1 (NS41:αS), 48% and 73% of αS protein were found in the soluble fraction, respectively, and the rest of αS protein was found in the insoluble fraction (Fig. 2d, Supplementary Fig. 4a, b). […] The antagonist activity of the monopyridyls corroborated well from both ThT and the SDS-PAGE assays (Fig. 2a–d, Supplementary Fig. 4a, b). The higher the antagonist activity of monopyridyls against αS aggregation, the lower the ThT intensity and the higher the amount of αS remained in the soluble fraction (Fig. 2a–d, Supplementary Fig. 4a, b). […] It is important to note that NS41 contains a carboxyl (COOH) functional group side chain. […] We have also shown in that work that the foldamer binds to the N-terminus of αS because of its negatively charged COOH functional group interaction with the positively charged lysine residues of αS[24]. […] Additionally, we have also shown that the OPs with the COOH functional group are very effective inhibitors of aggregation of other amyloid proteins that contain lysine amino acid via the formation of salt bridges[30]–[34].
An αS solution (100 µM) was prepared in PBS with or without ligands and shaken ([…], 37 °C) until the fluorescence plateaued, as observed using the ThT aggregation assay, indicative of the aggregation of αS as a control (four days for most experiments unless otherwise mentioned). The solutions were separated into soluble and insoluble fractions by centrifugation at 22,000 × g for 20 min. The fractions were diluted in 2×Laemmli protein sample loading buffer (Containing 2.1% SDS, Bio-rad, Hercules, CA), boiled at 95 °C for 5 min, and ran on a 12% Mini-PROTEAN precast protein gel (Bio-rad, Hercules, CA). The gel was visualized using ChemiDoc MP Imaging System (Bio-rad, Hercules, CA) and band intensity was quantified using Image Lab image acquisition and analysis software (Bio-rad, Hercules, CA). Densitometry values were averaged from three technical replicates and reported with the error bars representing their standard deviations.

Compound: Cc1ccc(NC(=O)c2ccc([N+](=O)[O-])c(NCCc3c[nH]c4ccccc34)n2)c(OCC(=O)O)n1 [NS72]
- ThT intensity relative to Synuclein alone (=1), Average [1]: 0.08383
- ThT intensity relative to Synuclein alone (=1), Trial 1-3 [1]: 0.08532 and 0.05997 and 0.1062

Compound: Cc1ccc(NC(=O)c2ccc(NC(=O)c3ccc([N+](=O)[O-])c(Cl)n3)c(NCC3CCCCC3)n2)c(OCC(=O)O)n1 [NS122]
- remaining activity at 100 µM [1]: 30%
- Relative ThT intensity of αS aggregation, Average ([1]; sheet S7A): 0.339
- Relative ThT intensity of αS aggregation ([1]; sheet S7A): 0.3017 and 0.3699 and 0.3455
- ThT intensity (raw), individual trials [1]: 5423 and 5518 and 5332
- αS band intensity, Total, Average (αS aggregation; sheet S7B): 100
- αS band intensity, Total (αS aggregation; sheet S7B): 101.8 and 101.7 and 96.5

Compound: Cc1ccc(NC(=O)c2ccc(NC(=O)c3ccc([N+](=O)[O-])c(NCC4CCCCC4)n3)c(NCC3CCCCC3)n2)c(OCC(=O)O)n1 [NS126]
- ThT intensity relative to Synuclein alone (=1), Average [1]: 0.4588
- ThT intensity relative to Synuclein alone (=1), Trial 1-3 [1]: 0.4925 and 0.4832 and 0.4007
- remaining activity at 100 µM [1]: 45.9%

Compound: Cc1ccc(NC(=O)c2ccc(NC(=O)c3ccc([N+](=O)[O-])c(NCCc4c[nH]c5ccccc45)n3)c(NCC3CCCCC3)n2)c(OCC(=O)OC(C)(C)C)n1 [NS132-P]
- remaining activity at 100 µM [1]: 80%
- ThT intensity (raw), individual trials [1]: 15241 and 16712 and 15019
- amount of αS in the insoluble fraction (αS aggregation; 100 µM αS, four days, equimolar): 84%
- Total (αS, SDS-PAGE gel shift), Average (αS aggregation; NS132-P 0.5 eq.): 0.8767
- Total (αS, SDS-PAGE gel shift), Trial 1-3 (αS aggregation; NS132-P 0.5 eq.): 0.83 and 0.85 and 0.95
- Total (αS, SDS-PAGE gel shift), Average (αS aggregation; NS132-P 1.0 eq.): 1.02
- Total (αS, SDS-PAGE gel shift), Trial 1-3 (αS aggregation; NS132-P 1.0 eq.): 1.069 and 1.01 and 0.98

Compound: Cc1ccc(NC(=O)c2ccc([N+](=O)[O-])c(NCCc3ccc(O)cc3)n2)c(OCC(=O)O)n1 [NS160]
- ThT intensity relative to Synuclein alone (=1), Average [1]: 0.7268
- ThT intensity relative to Synuclein alone (=1), Trial 1-3 [1]: 0.8429 and 0.6915 and 0.6459
- Relative ThT intensity of αS aggregation, Average ([1]; sheet S5A): 0.7268
- Relative ThT intensity of αS aggregation ([1]; sheet S5A): 0.8429 and 0.6915 and 0.6459
- αS band intensity, Total, Average (αS aggregation; sheet S5B): 100
- αS band intensity, Total (αS aggregation; sheet S5B): 103.4 and 101 and 95.6

Compound: Cc1ccc(NC(=O)c2ccc(NC(=O)c3ccc([N+](=O)[O-])c(NCCc4ccc(O)cc4)n3)c(NCC3CCCCC3)n2)c(OCC(=O)O)n1 [NS168]
- ThT intensity relative to Synuclein alone (=1), Average [1]: 0.02443
- ThT intensity relative to Synuclein alone (=1), Trial 1-3 [1]: 0.02302 and 0.02387 and 0.02641
- remaining activity at 100 µM [1]: 2.7%

Compound: Cc1ccc([N+](=O)[O-])c(OCC2CCCCC2)n1 [RD222]
- ThT intensity relative to Synuclein alone (=1), Average [1]: 0.6644
- ThT intensity relative to Synuclein alone (=1), Trial 1-3 [1]: 0.6754 and 0.635 and 0.6826
- αS band intensity, Total, Average (αS aggregation; sheet S4B): 100
- αS band intensity, Total (αS aggregation; sheet S4B): 97.5 and 99 and 103.5
